Experimental data from paper PMC7764826, “Flavonol Glycosides: In Vitro Inhibition of DPPIV, Aldose Reductase and Combating Oxidative Stress are Potential Mechanisms for Mediating the Antidiabetic Activity of Cleome droserifolia” (Molecules, 2020).

How the values were obtained:
[1] = system: cultured skeletal muscle cells and adipocytes; parameters: method as in PMID 21890334; settings: in vitro; cited from earlier work
breast (MCF7) carcinoma = settings: cited from earlier work
[2] = target: T1, α-amylase from porcine pancreas (Sus scrofa, UniProt P00690); assay: α-amylase inhibition assay (CNPG3 substrate, kinetic); type: biochemical; settings: in vitro, pH 6.9, 37 °C
T1 construct: purchased Sigma Aldrich
T1 sequence (P00690 16-511): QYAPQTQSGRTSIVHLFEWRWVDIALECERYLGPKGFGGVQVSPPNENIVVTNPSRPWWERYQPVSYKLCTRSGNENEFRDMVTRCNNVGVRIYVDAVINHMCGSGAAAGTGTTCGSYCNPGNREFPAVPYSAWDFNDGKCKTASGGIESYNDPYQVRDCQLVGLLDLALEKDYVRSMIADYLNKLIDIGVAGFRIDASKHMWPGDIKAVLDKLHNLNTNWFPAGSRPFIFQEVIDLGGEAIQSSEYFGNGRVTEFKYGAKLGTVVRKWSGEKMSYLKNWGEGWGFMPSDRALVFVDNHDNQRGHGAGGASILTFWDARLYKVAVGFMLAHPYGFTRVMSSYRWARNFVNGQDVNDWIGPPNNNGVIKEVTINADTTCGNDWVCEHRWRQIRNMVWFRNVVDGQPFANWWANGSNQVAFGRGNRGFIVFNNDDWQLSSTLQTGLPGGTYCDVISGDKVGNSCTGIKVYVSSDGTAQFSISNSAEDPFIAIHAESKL
Description: (§1) Alpha-glucosidase enzyme from Saccharomyces cerevisiae, α-amylase from porcine pancreas and 2-chloro-4-nitrophenyl-α-D-maltotrioside (CNPG3) were purchased from Sigma Aldrich. All other chemicals were purchased from UFC Biotechnology. A microplate reader (Anthos Zenyth-200RT, Cambridge, UK) was used for the spectrophotometric measurements. A Bruker NMR Spectrometer (Bruker, Yokohama, Japan) used for ^1H-NMR (400 MHZ) and ^13C-NMR (100 MHz) analysis. Spectra were recorded in CD3OD or DMSO-d6 using tetramethylsilane (Sigma-Aldrich, St. Louis, MO, USA) as an internal standard, and chemical shift values were expressed in δ ppm.
A pre-incubation mixture was prepared which contained 40 mM phosphate buffer (pH 6.9) together with different concentrations (10, 50, 100, 200 µg/mL) and (5, 20, 50, 100 µg/mL) for the parent extract and the isolated compounds, respectively. […] Then, 2-chloro-4-nitrophenyl maltotrioside (CNPG3) substrate was added where the final concentration was 0.9 µmole/mL. […] A control which was devoid of the test samples was also run in parallel.

liver (HepG2) carcinoma = settings: cited from earlier work
aldose reductase = target: T2, aldose reductase (Homo sapiens, UniProt P15121); assay: Aldose Reductase Inhibitor Screening Kit (NADPH absorbance at 340 nm); type: biochemical; settings: in vitro; for IC50: mean ± SEM of two replicates, read-out: Aldose reductase inhibition IC50 (converted)
T2 construct: purchased Biovision
Description: Determination of the aldose reductase inhibitory effectiveness of the investigated samples was performed kinetically using the Aldose Reductase Inhibitor Screening Kit (Biovision, Milpitas, CA, USA), according to the manufacturer׳s protocol. The decrease in the absorption of NADPH at 340 nm was measured in a mixture containing NADPH, the enzyme and its substrate, DL-glyceraldeyde in addition to test samples [31]. […] A 90 μL of freshly prepared Aldose Reductase Solution was then added and the plate was incubated protected from light at 37 °C for 15–20 min. After incubation, 40 μL enzyme substrate in assay buffer was added and the absorbance was measured at 340 nm kinetically for 60–90 min at 37 °C. A background control free from the enzyme was run and subtracted from the readings. The IC50 was calculated and presented for the samples and the standard.

[3] = Ferric reducing antioxidant power (FRAP) assay; settings: expressed in µM FeCl2; isolated compounds at 200 µg/mL
Description: The antioxidant potential of the extract and the isolated compounds was assessed according to the assay originally designed by Benzie and Strain (1996) using the DetectX® Ferric Reducing Antioxidant Power (FRAP™) Detection Kit by Arbor assays, Ann Arbor, USA. In the provided plate, 75 µL of the prepared FRAP Color Solution was mixed with 20 µL of either the aqueous extract (400 µg/mL), the isolated compounds (200 µg/mL), different concentrations of the standard ferrous chloride or ascorbic acid positive control. The mixture was incubated for 30 min at room temperature and the produced blue colored product was read at 560 nm. The FRAP values were calculated and expressed in µM FeCl2.

colon (HCT116) carcinoma = settings: cited from earlier work
[4] = target: Alpha-glucosidase enzyme from Saccharomyces cerevisiae; assay: α-glucosidase inhibition assay (PNP-G substrate); type: biochemical; settings: in vitro, pH 6.9, 37 °C
Description: as §1
The tested samples were added to a reaction mixture in a 96-well microplate containing 20 µL of the phosphate buffer and 20 µL of 5 mM p-nitrophenyl α -D-glucopyranoside (PNP-G) in the buffer. […] The IC50 for test compounds as well as the standard was calculated and presented.

[5] = DPPH radical scavenging assay; settings: 30 min, room temperature, 517 nm
Description: The free radical scavenging capacity of the parent extract of C. droserifolia together with the isolated compounds was estimated using 2,2-diphenyl-1-picrylhydrazil (DPPH) as described previously. In brief, 240 µL of 0.004% DPPH in methanol was added to 8 µL of the parent extract and the isolated compounds at different concentrations: (2, 4, 12, 16 µg/mL) and (0.5, 1, 3, 4 µg/mL), respectively. The reaction mixture was mixed and incubated in dark for 30 min at room temperature. The absorbance was then measured at 517 nm against blank that was done using water instead of the plant extract. Ascorbic acid was used as the antioxidant standard and the IC50 value for samples and standard was determined.

[6] = target: T3, Dipeptidyl peptidase IV (DPPIV) (Homo sapiens, UniProt P27487); assay: DPPIV Inhibitor Screening Kit (fluorescence); type: biochemical; settings: in vitro, mean ± SEM of two replicates; read-out: DPPIV inhibition IC50 (converted)
T3 construct: purchased Abnova
T3 sequence (P27487 whole entry, species assumed): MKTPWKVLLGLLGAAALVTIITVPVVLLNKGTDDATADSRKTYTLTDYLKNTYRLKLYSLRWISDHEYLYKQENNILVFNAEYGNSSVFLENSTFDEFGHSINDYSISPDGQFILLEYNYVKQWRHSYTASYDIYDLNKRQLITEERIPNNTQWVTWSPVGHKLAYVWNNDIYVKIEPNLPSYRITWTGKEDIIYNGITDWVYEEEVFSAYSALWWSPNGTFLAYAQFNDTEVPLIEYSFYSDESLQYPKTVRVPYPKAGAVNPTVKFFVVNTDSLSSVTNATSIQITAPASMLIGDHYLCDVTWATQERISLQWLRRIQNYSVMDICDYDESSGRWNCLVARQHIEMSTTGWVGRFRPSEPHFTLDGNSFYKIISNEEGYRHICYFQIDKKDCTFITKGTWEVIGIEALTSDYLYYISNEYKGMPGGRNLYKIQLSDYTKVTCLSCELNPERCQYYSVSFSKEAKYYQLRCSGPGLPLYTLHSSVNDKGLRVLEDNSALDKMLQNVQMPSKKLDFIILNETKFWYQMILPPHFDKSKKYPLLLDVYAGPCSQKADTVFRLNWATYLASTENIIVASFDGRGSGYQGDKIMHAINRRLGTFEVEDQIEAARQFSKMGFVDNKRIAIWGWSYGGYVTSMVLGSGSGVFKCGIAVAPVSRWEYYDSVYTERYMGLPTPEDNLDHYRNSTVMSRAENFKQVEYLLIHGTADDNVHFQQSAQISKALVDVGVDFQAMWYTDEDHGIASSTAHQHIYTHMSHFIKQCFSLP
Source text: The DPPIV Inhibitor Screening Kit (Abnova, Taipei, Taiwan) was used in accordance to the manufacturer׳s protocol.

Compound | Effect on basal glucose uptake (in words) [1] | Cytotoxic activity (in words) (breast (MCF7) carcinoma) | IC50 [2] | Cytotoxic activity (in words) (liver (HepG2) carcinoma) | Aldose reductase inhibitory activity (in words) (aldose reductase) | IC50 (aldose reductase) | FRAP value [3] | melting point | Cytotoxic activity (in words) (colon (HCT116) carcinoma) | α-glucosidase inhibition IC50 [4] | DPPH radical scavenging IC50 [5] | IC50 [6]
COc1cc(-c2oc3cc(O[C@@H]4O[C@@H](C)[C@H](O)[C@@H](O)[C@H]4O)cc(O)c3c(=O)c2O[C@@H]2O[C@@H](C)[C@H](OC(C)=O)[C@@H](O)[C@H]2O)ccc1O [Compound 5, isorhamnetin-3-O-α-(4″- acetylrhamnoside)-7-O-α-rhamnoside] | significant insulin-like effects | potent cytotoxic activities | 163 µM | potent cytotoxic activities | least aldose reductase inhibitory activity | 119 µM | 3610 ± 88.3 µM | 257 °C | potent cytotoxic activities | 86.54 ± 3.8 µg/mL | 11.45 ± 0.48 µg/mL | 
COc1cc(-c2oc3cc(O[C@@H]4O[C@H](CO)[C@@H](O)[C@H](O)[C@H]4O[C@@H]4O[C@@H](C)[C@H](O)[C@@H](O)[C@H]4O)cc(O)c3c(=O)c2O)ccc1O [Compound 2, isorhamnetin-7-O-β-D-neohesperidoside] |  |  |  |  |  | 8.73 µM |  | 225 °C |  |  |  | 0.917 µM
O=C1O[C@H]([C@@H](O)CO)C(O)=C1O [ascorbic acid, reference compound] |  |  |  |  |  |  | 685.2 ± 1.07 µM |  |  |  | 1.37 ± 0.07 µg/mL | 
C[C@@H]1O[C@@H](Oc2cc(O)c3c(=O)c(O[C@@H]4O[C@H](CO)[C@@H](O)[C@H](O)[C@H]4O)c(-c4ccc(O)c(O)c4)oc3c2)[C@H](O)[C@H](O)[C@H]1O [Compound 1, quercetin-3-O-β-D-glucosyl-7-O-α-rhamnoside] |  |  |  |  |  | 50 µM | 3106 ± 52.2 µM |  |  |  | 5.67 ± 0.09 µg/mL | 0.318 µM
COc1ccc(-c2oc3cc(O[C@@H]4O[C@@H](C)[C@H](O)[C@@H](O)[C@H]4O)cc(O)c3c(=O)c2O[C@@H]2O[C@@H](C)[C@H](O)[C@@H](O)[C@H]2O)cc1 [Compound 4, kaempferol-4′-methoxy-3,7-O-α-dirhamnoside] | significant insulin-like effects | potent cytotoxic activities | 258 µM | potent cytotoxic activities |  | 51.8 µM | 1812 ± 33.2 µM |  | potent cytotoxic activities | 110.09 ± 4.2 µg/mL | 9.44 ± 0.13 µg/mL | 0.474 µM
COc1cc(-c2oc3cc(O)cc(O)c3c(=O)c2O[C@@H]2O[C@H](CO)[C@@H](O)[C@H](O)[C@H]2O)ccc1O [Compound 3, isorhamnetin-3-O-β-D-glucoside] |  |  |  |  |  | 45 µM |  |  |  |  |  | 0.721 µM
